Laboratory results reported in patent US8173392B2, “In vivo incorporation of unnatural amino acids” (The Scripps Research Institute, priority 2001, dated 2012).

What was measured:
[1] = system: glutamine uptake pathway of DH10B; test: complementation of toxic glutamine alleles S27 and S47 (cellular uptake); format: cell-based, E. coli; conditions: 2 mM, complementation of S27 (100 μM) and S47 (30 μM)
Excerpt: To identify possible uptake pathways for toxic amino acids, toxicity assays are optionally repeated at IC50 levels, e.g., in media supplemented with an excess of a structurally similar natural amino acid. For toxic amino acids, the presence of excess natural amino acid typically rescues the ability of the cells to grow in the presence of the toxin, presumably because the natural amino acid effectively outcompetes the toxin for either cellular uptake or for binding to essential enzymes. In these cases, the toxic amino acid is optionally assigned a possible uptake pathway and labeled a “lethal allele” whose complementation is required for cell survival. These lethal alleles are extremely useful for assaying the ability of cells to uptake nontoxic unnatural amino acids. […] A lack of complementation is inconclusive. For example studies and conclusions see the examples provided below.
For toxic amino acids, the presence of excess natural amino acid rescued the ability of the cells to grow in the presence of the toxin, presumably because the natural amino acid effectively outcompeted the toxin for either cellular uptake or for binding to essential enzymes. […]
Using this method, the ability of 22 glutamine and glutamic acid analogs to be taken up by DH10B was evaluated. […]

[2] = system: DH10B harboring pBLAM-YQRS and pACYsupA38; test: cell toxicity screen of unnatural amino acids in glycerol minimal media; format: cell-based, E. coli; conditions: concentration used as lethal allele at IC50 level
Excerpt: For example, a variety of unnatural amino acids are optionally screened in minimal media for toxicity to cells. Toxicities are typically sorted into five groups: (1) no toxicity, in which no significant change in doubling times occurs; (2) low toxicity, in which doubling times increase by less than about 10%; (3) moderate toxicity, in which doubling times increase by about 10% to about 50%; (4) high toxicity, in which doubling times increase by about 50% to about 100%; and (5) extreme toxicity, in which doubling times increase by more than about 100%. […] The toxicity of the amino acids scoring as highly or extremely toxic is typically measured as a function of their concentration to obtain IC50 values.
A variety of unnatural amino acids and α-hydroxy acids of interest, obtained commercially or by short syntheses from available starting materials (I. Shin, B. Herberich, A. Varvak, T. Magliery, P. Schultz, unpublished results, were screened for cell toxicity). […] Each amino acid wasscreened at 1 mM in glycerol minimal media for toxicity to cells, e.g., to DH10B harboring pBLAM-YQRS and pACYsupA38.
The toxicity of amino acids scoring as highly or extremely toxic is typically measured as a function of their concentration to obtain IC50 values. […]

For NNC(=O)CCC(N)C(=O)O (centres unmarked) [S47], the “cellular uptake, possibly via the glutamine uptake pathway” value [1] was “uptaken by cells” and the IC50 [2] was 30 µM.
